For the test, the target named is DYRK1A (Homo sapiens, UniProt Q13627). The test is described as follows: Affinity testing of compounds with DYRK1A (KD). Format: binding. To be noted: DYRK1A affinity key classes.
In general, Kd refers to a measure of binding affinity in units of concentration. `Cc1nc2ccc(-c3ccncc3)nc2n1-c1ccc(CN2C[C@@H]3C[C@@H]2CO3)cc1` [Compound 124, (1S,4R)-5-(4-(2-methyl-5-(pyridin-4-yl)-3H-imidazo[4,5-b]pyridin-3-yl)benzyl)-2-oxa-5-azabicyclo[2.2.1]heptane]: the dissociation constant (Kd) lay in the range of 0.5 to 100 nM.
Under `Cc1cc(-c2ccc3ncc(-c4ccc(CN5CCC(C)(C)CC5)cc4)n3n2)ccn1` [Compound 93, 3-(4-((4,4-dimethylpiperidin-1-yl)methyl)phenyl)-6-(2-methylpyridin-4-yl)imidazo[1,2-b]pyridazine] stands 101 to 500 nM; under `COc1cc(-c2ccc3ncc(-c4ccc(CN5CCOCC5)cc4)n3n2)ccn1` [Compound 107, 4-(4-(6-(2-methoxypyridin-4-yl)imidazo[1,2-b]pyridazin-3-yl)benzyl)morpholine], 101 to 500 nM; under `Cc1nc2ccc(-c3ccncc3)nc2n1-c1ccc(N2CCN(C)CC2)cc1` [Compound 132, 2-methyl-3-(4-(4-methylpiperazin-1-yl)phenyl)-5-(pyridin-4-yl)-3H-imidazo[4,5-b]pyridine], 0.5 to 100 nM.
The result for `c1cc(-c2ccc3ncc(-c4ccc(N5CCN(C6COC6)CC5)nc4)n3n2)ccn1` [Compound 83, 3-(6-(4-(oxetan-3-yl)piperazin-1-yl)pyridin-3-yl)-6-(pyridin-4-yl)imidazo[1,2-b]pyridazine] reads 0.5 to 100 nM.
In the case of `Fc1cc2ncn(-c3ccc4c(c3)OCO4)c2cc1-c1ccncc1` [Compound 2, 1-(benzo[d][1,3]dioxol-5-yl)-5-fluoro-6-(pyridin-4-yl)-1H-benzo[d]imidazole], the Kd was 0.5 to 100 nM.
Under `Cc1nc2ncc(-c3ccncc3)nc2n1-c1ccc(N2CCOCC2)cc1` [Compound 129, 4-(4-(2-methyl-6-(pyridin-4-yl)-1H-imidazo[4,5-b]pyrazin-1-yl)phenyl)morpholine] stands 501 to 10000 nM; under `Cc1nc2ccc(-c3ccncc3)nc2n1-c1ccc(N2CCN(C)CC2)c(F)c1` [Compound 135, 3-(3-fluoro-4-(4-methylpiperazin-1-yl)phenyl)-2-methyl-5-(pyridin-4-yl)-3H-imidazo[4,5-b]pyridine], 0.5 to 100 nM.
Under `CCOC(=O)c1ccc(-n2c(C)nc3ccc(-c4ccncc4)nc32)cc1` [Compound 40, ethyl 4-(2-methyl-5-(pyridin-4-yl)-3H-imidazo[4,5-b]pyridin-3-yl)benzoate] stands 0.5 to 100 nM.
The compound `Cc1nc2ccc(-c3cn[nH]c3)nc2n1-c1ccc2[nH]cnc2c1` [Compound 33, 3-(1H-benzo[d]imidazol-5-yl)-2-methyl-5-(1H-pyrazol-4-yl)-3H-imidazo[4,5-b]pyridine] gave a Kd of 0.5 to 100 nM.
In the case of `c1n[nH]cc1-c1ccc2ncc(-c3ccc4c(c3)OCO4)n2n1` [Compound 27, 3-(benzo[d][1,3]dioxol-5-yl)-6-(1H-pyrazol-4-yl)imidazo[1,2-b]pyridazine], the dissociation constant (Kd) lay within 0.5 to 100 nM.
Under `Cc1nc2ccc(-c3ccnc(N)c3)nc2n1-c1ccc(F)c(N2CCOCC2)c1` [Compound 173, 4-(3-(4-fluoro-3-morpholinophenyl)-2-methyl-3H-imidazo[4,5-b]pyridin-5-yl)pyridin-2-amine] stands 0.5 to 100 nM; under `Cc1nc2ccc(-c3ccncc3)nc2n1-c1ccc(CN2CCS(=O)(=O)CC2)cc1` [Compound 126, 4-(4-(2-methyl-5-(pyridin-4-yl)-3H-imidazo[4,5-b]pyridin-3-yl)benzyl)thiomorpholine 1,1-dioxide], 0.5 to 100 nM; under `Cc1nc2ccc(-c3cc[nH]c(=O)c3)nc2n1-c1ccc(N2CCOCC2)cc1` [Compound 54, 4-(2-methyl-3-(4-morpholinophenyl)-3H-imidazo[4,5-b]pyridin-5-yl)pyridin-2(1H)-one], 501 to 10000 nM.
In turn, `Cc1cc(-c2ccc3nc(C)n(-c4ccc(N5CCOCC5)c(F)c4)c3n2)ccn1` [Compound 145, 4-(2-fluoro-4-(2-methyl-5-(2-methylpyridin-4-yl)-3H-imidazo[4,5-b]pyridin-3-yl)phenyl)morpholine] returned a Kd of 0.5 to 100 nM.
Compound `O=c1cc(-c2ccn3ncc(-c4ccc(CN5CCOCC5)cc4)c3n2)cc[nH]1` [Compound 113, 4-(3-(4-(morpholinomethyl)phenyl)pyrazolo[1,5-a]pyrimidin-5-yl)pyridin-2(1H)-one] had a dissociation constant (Kd) of 501 to 10000 nM.
The result for `Cc1nc2ccc(-c3cnn(C)c3)nc2n1-c1ccc2c(c1)OCO2` [Compound 31, 3-(benzo[d][1,3]dioxol-5-yl)-2-methyl-5-(1-methyl-1H-pyrazol-4-yl)-3H-imidazo[4,5-b]pyridine] reads 101 to 500 nM.
The result for `CC(=O)N1CCN(Cc2ccc(-n3c(C)nc4ccc(-c5ccncc5)nc43)cc2)CC1` [Compound 116, 1-(4-(4-(2-methyl-5-(pyridin-4-yl)-3H-imidazo[4,5-b]pyridin-3-yl)benzyl)piperazin-1-yl)ethan-1-one] reads 0.5 to 100 nM; that for `c1cc(-c2ccc3ncc(-c4ccc(CN5CCCC5)cc4)n3n2)ccn1` [Compound 103, 6-(pyridin-4-yl)-3-(4-(pyrrolidin-1-ylmethyl)phenyl)imidazo[1,2-b]pyridazine], 101 to 500 nM; that for `Cc1nc2ccc(-c3ccnc(N)c3)nc2n1-c1ccc(N2CCN(C)CC2)c(F)c1` [Compound 151, 4-(3-(3-fluoro-4-(4-methylpiperazin-1-yl)phenyl)-2-methyl-3H-imidazo[4,5-b]pyridin-5-yl)pyridin-2-amine], 0.5 to 100 nM.
Under `Cc1nc2ncc(-c3ccnc(N)c3)nc2n1-c1ccc2[nH]cnc2c1` [Compound 130, 4-(1-(1H-benzo[d]imidazol-5-yl)-2-methyl-1H-imidazo[4,5-b]pyrazin-6-yl)pyridin-2-amine] stands 101 to 500 nM; under `Cc1nc2ccc(-c3ccnc(N)c3)nc2n1-c1ccc(N2C[C@H](C)O[C@@H](C)C2)c(F)c1` [Compound 183, 4-(3-(4-((2S,6S)-2,6-dimethylmorpholino)-3-fluorophenyl)-2-methyl-3H-imidazo[4,5-b]pyridin-5-yl)pyridin-2-amine], 0.5 to 100 nM; under `N#Cc1cnccc1-c1ccc2ncc(-c3ccc(CN4CCOCC4)cc3)n2n1` [Compound 106, 4-(3-(4-(morpholinomethyl)phenyl)imidazo[1,2-b]pyridazin-6-yl)nicotinonitrile], 501 to 10000 nM.
`Cc1nc2ccc(-c3ccnc(N)c3)c(F)c2n1-c1ccc(N2CCOCC2)cc1` [Compound 127, 4-(7-fluoro-2-methyl-1-(4-morpholinophenyl)-1H-benzo[d]imidazol-6-yl)pyridin-2-amine] had a Kd of 0.5 to 100 nM.
`Cc1nc2ccc(-c3ccnc(N)c3)nc2n1-c1ccc(CN2CCOCC2)cc1` [Compound 44, 4-(2-methyl-3-(4-(morpholinomethyl)phenyl)-3H-imidazo[4,5-b]pyridin-5-yl)pyridin-2-amine] had a Kd of 0.5 to 100 nM.
Consider `Cc1nc2ccc(-c3ccncc3)nc2n1-c1ccc2c(c1)OCO2` [Compound 29, 3-(benzo[d][1,3]dioxol-5-yl)-2-methyl-5-(pyridin-4-yl)-3H-imidazo[4,5-b]pyridine], for which the Kd lay in the range of 0.5 to 100 nM.
Under `Cc1nc2ccc(-c3ccnc(N)c3)nc2n1-c1ccnc(N2CCOCC2)c1` [Compound 164, 4-(2-methyl-3-(2-morpholinopyridin-4-yl)-3H-imidazo[4,5-b]pyridin-5-yl)pyridin-2-amine] stands 0.5 to 100 nM.
